One block for each molecule: values may come before it.
Columns and labels:
[1] = tested on: K562 cells; experiment: Antiproliferative effect on K562 cells (cell number after 5 days); format: cell-based; conditions: Homo sapiens, 120 h, 5 days culture, average of three experiments
Method: (§1) The biological activity of the compounds of the present application was evaluated by examining the capacity to modulate the expression of γ-globin genes in the human K562 cell line, which is capable of differentiating in the erythroid manner by expressing genes for γ-globin if treated with modifiers of the biological response that are suitable for the purpose (Bianchi et al, J. Haematol., 113, 4, p. 951-961, 2001). The human K562 cells were cultured in RPMI 1640 medium (Sigma, St Louis, Mo., USA) supplemented with 10% foetal bovine serum (FBS; Analitical de Mori, Milan, Italy), 100 units/mL penicillin and 100 μg/mL streptomycin. Cell growth was determined according to cell number/ml, using a cell counter (Coulter Electronics, Hialeah, Fla., USA). For experiments, K562 cell cultures were initiated at 3×10^4/mL and the chemical inducers at the indicated concentrations added. Following 3-5 days incubation without a medium change erythroid differentiation was determined by staining the cells in a solution containing 0.2% benzidine in 0.5 M glacial acetic acid, 10% H2O2. Benzidine positivity indicates the presence of intracellular Hb.
(§2) The erythroid differentiation of K562 cells was investigated following treatment with selected compounds of the invention. The effect on cell proliferation was first determined for all tested molecules by culture of K562 cells in the presence of increasing concentration of the compounds. The cell number per sample was then determined after 3, 4 and 5 days. The IC50 values reported in Table 3 for the antiproliferative effect were calculated from the concentration of the compounds necessary to decrease the cell number to 50% of the values obtained in control untreated K562 cell cultures, after a 5 days culture period. Erythroid differentiation was measured by benzidine staining after 5, 6 and 7 days of cell culture and by quantitative reverse transcriptase polymerase-chain reaction (RT-qPCR) to quantify the expression of γ-globin mRNA. Different concentrations of tested compounds were employed because of their differing antiproliferative effects; accordingly, concentrations were chosen to maximize the erythroid induction effect without extensive reduction of cell viability. In Table 3 the % of benzidine positive cells and the increase in γ-globin mRNA assayed by RT-qPCR after 6 days of culture period are reported.

[2] = tested on: γ-globin mRNA in K562 cells; experiment: γ-globin mRNA in K562 cells by quantitative RT-PCR; format: cell-based, human; conditions: 6 days
Method: The expression of the genes encoding for γ-globin was evaluated by quantitative RT-PCR. The analyses were carried out on material extracted from cells treated for 6 days in the conditions indicated.
Total RNA was extracted from cells by the use of TRI Reagent RNA isolation Reagent (Sigma Aldrich). All solutions and laboratory equipment were certified RNAse free. Following the manufacturers instructions, 1 mL of the reagent was added to 5*10^6 cells. After a 3 minute incubation at room temperature, 20 μg of glycogen and 200 μL of chloroform were added. The samples were then centrifuged and the aqueous phase recovered. This phase was diluted with one volume of isopropanol and centrifuged at 4° C. to let the RNA precipitate. After a washing step with methanol, the extracted RNA was dried and then resuspended in RNAse free water. The purified RNAs were stored at −80° C.
In order to determine the quality of the extracted RNA, electrophoresis runs on 0.8% agarose gel were carried out. The amount of the recovered RNA was quantified by its absorbance at 260 nm. Protein contamination quality control was carried out by ensuring that the 260/280 nm absorbance ratio was greater than 1.8
cDNA production from the extracted RNA was carried out as per ImProm-II™ Reverse Transcription System (Promega). 0.5 μg di RNA was retro-transcribed by using random hexamer. The produced cDNA was then stored at −80° C. until use.
The expression of the genes encoding for γ-globin was evaluated by quantitative RT-PCR, using the following primer and probe oligonucleotides (FAM=6-carboxy fluorescein, TAMRA=6-carboxy-N,N,N′,N′-tetramethylrhodamine):
For real-time PCR analysis we used as reference gene the endogenous control human GAPDH kit (Applied Biosystems).
as §2

[3] = tested on: K562 cells; experiment: Erythroid differentiation of K562 cells by benzidine staining; format: cell-based, human
Method: as §1, §2
Table 4 reports induction of erythroid differentiation in K562 cells treated with an optimized concentration of the compound 2 in comparison with known inducers. Compound 2 is able to stimulate an increase of the proportion of benzidine-positive (hemoglobin producing) K562 cells. This is associated with an increase of the expression of γ-globin mRNA.

[4] = tested on: HDAC in Hela cells; experiment: HDAC Hela Cell Based assay
[5] = Intrinsic clearance in pooled human liver microsomes; format: in vitro ADME; conditions: pH 7.4
[6] = Intrinsic clearance in pooled mouse liver microsomes; format: in vitro ADME; conditions: pH 7.4
[7] = Mouse in vivo pharmacokinetics, oral dose; conditions: plasma
Method: Compounds of the invention were evaluated in in vitro and in vivo pharmacokinetic studies.

[8] = Intrinsic clearance in pooled rat liver microsomes; format: in vitro ADME; conditions: pH 7.4
Method: Assays were performed in presence of 0.5 mg/ml of microsomal protein, with a NADPH-generating system (1 mM NADP, 2.5 mM glucose 6-phosphate and 2 U/ml glucose 6-phosphate dehydrogenase) in 100 mM potassium phosphate buffer containing 3.3 mM MgCl2 (pH 7.4). Tested compounds were stored in 10 mM DMSO solution and incubated at 1 μM final concentration (final DMSO concentration in incubation less than 0.1%). Microsomes and substrates were preincubated at 37° C. for 5 min and then the enzymatic reactions were initiated by the addition of cofactors and incubated at 37° C. for up to 90 min. Incubations were terminated by the addition of an equivalent volume of cold acetonitrile containing I.S. Control incubations, where the substrate was incubated in the same buffer system containing pRLM without the NADPH-generating system, were also run.

SMILES: CCC(=O)CCCCC[C@H](NC(=O)C1CCN(C)CC1)c1ncc(-c2cc3ccccc3n(C)c2=O)o1 [Compound 109, (S)-1-methyl-N-(1-(5-(1-methyl-2-oxo-1,2-dihydroquinolin-3-yl)oxazol-2-yl)-7-oxononyl)piperidine-4-carboxamide]
IC50 [1]: > 50 nM
γ-globin mRNA content (fold induction) ([2]; 60 nM): 1.31 fold induction
% of benzidine positive cells after 6 days ([3]; 60 nM): 1.5%
IC50 [4]: < 100 nM

SMILES: CCC(=O)CCCCC[C@H](NC(=O)c1cnc(CN2CCCC2)s1)c1ncc(-c2cc3ccccc3nc2OC)o1 [Compound 82, (S)-N-(1-(5-(2-methoxyquinolin-3-yl)oxazol-2-yl)-7-oxononyl)-2-(pyrrolidin-1-ylmethyl)thiazole-5-carboxamide]
IC50 [1]: > 400 nM
γ-globin mRNA content (fold induction) ([2]; 260 nM): 0.96 fold induction
% of benzidine positive cells after 6 days ([3]; 260 nM): 4.5%
IC50 [4]: < 100 nM

SMILES: CCC(=O)CCCCC[C@H](NC(=O)C1(F)CN(C)C1)c1ncc(-c2cc3ccccc3nc2OC)o1 [Compound 67, (S)-3-fluoro-N-(1-(5-(2-methoxyquinolin-3-yl)oxazol-2-yl)-7-oxononyl)-1-methylazetidine-3-carboxamide]
IC50 [1]: 950 nM
γ-globin mRNA content (fold induction) ([2]; 1800 nM): 5.08 fold induction
% of benzidine positive cells after 6 days ([3]; 1800 nM): 12%
IC50 [4]: 100 to 1000 nM

SMILES: CCC(=O)CCCCC[C@H](NC(=O)Cn1nc(C)nc1C)c1ncc(-c2cc3ccccc3nc2OC)o1 [Compound 80, (S)-2-(3,5-dimethyl-1H-1,2,4-triazol-1-yl)-N-(1-(5-(2-methoxyquinolin-3-yl)oxazol-2-yl)-7-oxononyl)acetamide]
IC50 [1]: 250 nM
γ-globin mRNA content (fold induction) ([2]; 200 nM): 1.03 fold induction
% of benzidine positive cells after 6 days ([3]; 200 nM): 1%
IC50 [4]: 100 to 1000 nM

SMILES: CCC(=O)CCCCC[C@H](NC(=O)C(=O)N1CCN(C)CC1)c1ncc(-c2cc3ccccc3nc2OC)o1 [Compound 37, (S)-N-(1-(5-(2-methoxyquinolin-3-yl)oxazol-2-yl)-7-oxononyl)-2-(4-methylpiperazin-1-yl)-2-oxoacetamide]
IC50 [1]: 600 nM
γ-globin mRNA content (fold induction) ([2]; 1600 nM): 7.84 fold induction
% of benzidine positive cells after 6 days ([3]; 1600 nM): 16%
IC50 [4]: 100 to 1000 nM

Further molecules by falling IC50 [1], results first:

IC50 [1]: 200 nM
γ-globin mRNA content (fold induction) ([2]; 300 nM): 1.19 fold induction
IC50 [4]: < 100 nM
SMILES: CCC(=O)CCCCC[C@H](NC(=O)c1cncs1)c1ncc(-c2cc3ccccc3n(C)c2=O)o1 [Compound 110, (S)-N-(1-(5-(1-methyl-2-oxo-1,2-dihydroquinolin-3-yl)oxazol-2-yl)-7-oxononyl)thiazole-5-carboxamide]
% of benzidine positive cells after 6 days ([3]; 300 nM): 5%

microsomal CLint at 1 μM [5]: 13 µL/min/mg
microsomal CLint at 1 μM [6]: 27 µL/min/mg
IC50 [1]: 75 nM
AUC ([7]; po 20 mg/kg): 22.4 µM·h
Cmax ([7]; po 20 mg/kg): 1870 nM
γ-globin mRNA content (fold induction) ([2]; 70 nM): 1.75 fold induction
IC50 [4]: < 100 nM
microsomal CLint at 1 μM [8]: 33 µL/min/mg
SMILES: CCC(=O)CCCCC[C@H](NC(=O)C1CN(C)C1)c1ncc(-c2cc3ccccc3nc2OC)o1 [Compound 2, (S)-N-(1-(5-(2-methoxyquinolin-3-yl)oxazol-2-yl)-7-oxononyl)-1-methylazetidine-3-carboxamide]
% of benzidine positive cells after 6 days ([3]; 70 nM): 10%
Benzidine positive cells (%) ([3]; optimized concentration, mean ± SD of six experiments): 25 ± 3.5%

microsomal CLint at 1 μM [5]: < 5 µL/min/mg
microsomal CLint at 1 μM [6]: 13 µL/min/mg
IC50 [1]: 50 nM
AUC ([7]; po 10 mg/kg): 0.32 µM·h
Cmax ([7]; po 10 mg/kg): 100 nM
γ-globin mRNA content (fold induction) ([2]; 40 nM): 1.24 fold induction
IC50 [4]: < 100 nM
microsomal CLint at 1 μM [8]: 15 µL/min/mg
SMILES: CCC(=O)CCCCC[C@H](NC(=O)C1CN(C)C1)c1ncc(-c2cc3ccccc3n(C)c2=O)o1 [Compound 92, (S)-1-methyl-N-(1-(5-(1-methyl-2-oxo-1,2-dihydroquinolin-3-yl)oxazol-2-yl)-7-oxononyl)azetidine-3-carboxamide]
% of benzidine positive cells after 6 days ([3]; 40 nM): 8%

IC50 [1]: 47 nM
γ-globin mRNA content (fold induction) ([2]; 60 nM): 2.51 fold induction
IC50 [4]: < 100 nM
SMILES: CCC(=O)CCCCC[C@H](NC(=O)C1(N(C)C)CCCC1)c1ncc(-c2cc3ccccc3n(C)c2=O)o1 [Compound 111, (S)-1-(dimethylamino)-N-(1-(5-(1-methyl-2-oxo-1,2-dihydroquinolin-3-yl)oxazol-2-yl)-7-oxononyl)cyclopentanecarboxamide]
% of benzidine positive cells after 6 days ([3]; 60 nM): 6%

IC50 [1]: 41 nM
γ-globin mRNA content (fold induction) ([2]; 60 nM): 2.01 fold induction
IC50 [4]: < 100 nM
SMILES: CCC(=O)CCCCC[C@H](NC(=O)CCN(C)C)c1ncc(-c2cc3ccccc3n(C)c2=O)o1 [Compound 106, (S)-3-(dimethylamino)-N-(1-(5-(1-methyl-2-oxo-1,2-dihydroquinolin-3-yl)oxazol-2-yl)-7-oxononyl)propanamide]
% of benzidine positive cells after 6 days ([3]; 60 nM): 8.5%

IC50 [1]: 24 nM
γ-globin mRNA content (fold induction) ([2]; 40 nM): 1.87 fold induction
IC50 [4]: < 100 nM
SMILES: CCC(=O)CCCCC[C@H](NC(=O)C(C)(C)N(C)C)c1ncc(-c2cc3ccccc3n(C)c2=O)o1 [Compound 107, (S)-2-(dimethylamino)-2-methyl-N-(1-(5-(1-methyl-2-oxo-1,2-dihydroquinolin-3-yl)oxazol-2-yl)-7-oxononyl)propanamide]
% of benzidine positive cells after 6 days ([3]; 40 nM): 2%
